From patent US20080207544A1, “Compositions And Methods For Delivery Of Agents Into Cells” (priority 2005, published 2008)

Assays:
RG2 cells = assay: Luciferase gene transfer activity of modified lipoplexes in RG2 cells; assay type: cell-based, rat; details: 48 hours, 1 μg per well
Experimental: FIG. 12. In vitro gene transfer activity of lipoplexes modified with different lipids. Complexes with DOPE-MPB-Cys, DOPE or CXCR4-lipopeptide were incubated with RG2 cells (1 μg pLC0888/well). Each point is an average of three wells ±SD.
Preparation of lipoplexes. The lipid-based transfection-reagent (Genzyme lipid 89:Lym-X-Sorb:Vitamin E 10:89:1) was prepared aseptically by mixing 8 μl of Genzyme lipid 89 (25 mg/ml in chloroform or 0.038 μmoles/μl) (Genzyme, Cambridge, Mass.); 7.5 μl Lym-X-Sorb (138 mg/ml in chloroform or 0.365 μmoles/μl) (Avanti Polar Lipids, Birmingham, Ala.) and 2.2 μl Vitamin E (5.905 mg/ml or 0.0137 μmoles/μl) (Sigma, St Louis, Mo.) in a clean reagent-tube. Once the lipids were thoroughly mixed the solvent was evaporated using argon. Residual solvent was removed by placing the vial under a vacuum in the desiccator for 30 mins. The dried lipid-film was hydrated with 3 ml of HEPES Buffered Saline (HBS; 7.5 mM HEPES, 150 mM NaCl). After hydration the transfection-mixture was bath-sonicated for 5 minutes. […]
Luciferase-Assay. […] 150 μl of lysisbuffer (0.1 M potassium phosphate buffer; 1% Tx-100; 1 mM DTT; 2 mM EDTA; pH=7.8) (Sigma, St. Louis, Mo.) was added to each well and the plate was stored at −80° C. for 10 minutes or until ready to be assayed. […]

B16 melanoma cells = assay: Luciferase transfection of B16 cells with FGF receptor targeted lipoplexes; assay type: cell-based; details: same experimental conditions as RG2
Experimental: FIG. 13. Transfection of B16 cells by implementation of FGF receptor targeted lipoplexes. Transfection With CXCR4-ligand targeted lipoplexes leads to increased transfection-efficiency in vitro. Whether increased specific binding to cells expressing the targeted receptor leads to increased transfection-efficiency in vitro is tested by transfecting cells with targeted and untargeted lipoplexes expressing the reporter-enzyme luciferase. Many tumor cell-lines express CXCR4, including the RG2 cell-line (as confirmed by flow cytometry; data not shown). These cells are efficiently transfected with lipoplexes prepared as described in the materials and methods section. Transfection of cells with untargeted lipoplexes coding for GFP at a dose of 1 μg DNA per 50,000 cells typically leads to a 30-40% transfection-efficiency after 48 hours (data not shown). However, whenever the lipid-composition of the optimized formulation was changed by titrating in cysteine-modified DOPE-MPB (DOPE-MPB-Cys) or DOPE instead of Lym-X-Sorb (i.e. modification of helper-lipids); the transfection-efficiency decreased steadily. Even at low concentrations of DOPE-MPB-Cys and DOPE (1 molepercent) transfection-efficiency as measured by luciferase-expression after 48 hours (1 μg per well) was decreased by about 30% (100% being 4*10^4 RLU equivalent to 35 ng recombinant luciferase per well). […]

SMILES: CCCCCCCC/C=C\CCCCCCCC(=O)OC[C@H](COP(=O)(O)OCCN)OC(=O)CCCCCCC/C=C\CCCCCCCC [DOPE]
- decrease of transfection-efficiency as measured by luciferase-expression (RG2 cells; 1 molepercent modification-lipid instead of Lym-X-Sorb): about 30%
- transfection-efficiency (luciferase) (RG2 cells; 20 molepercent modification-lipid): 3.9±1.1 % of control
- luciferase expression / transfection efficiency as a function of mol % of modifier lipid (B16 melanoma cells): decreased luciferase expression
